Data: patent publication US9655887B2, “Pharmaceutical composition and the use thereof, and application regime of said pharmaceutical composition for on-demand contraception” (BAYER PHARMA AKTIENGESELLSCHAFT, priority 2013, dated 2017)

Target: EP2 subtype of the human PGE2 receptor (hEP2 receptor) (Homo sapiens, UniProt P43116)
Assay: cAMP antagonism test, human prostaglandin E2 (subtype EP2) receptor signal
Format: cell-based
From the text: 1. Detection of Antagonism to the Human Prostaglandin E2 (Subtype EP2) Receptor Signal
The binding of PGE2 to the EP2 subtype of the human PGE2 receptor induces the activation of membrane-located adenylate cyclases and leads to the formation of cAMP. In the presence of the phosphodiesterase inhibitor IBMX, the cAMP accumulated owing to this stimulation and released by cell lysis is used in a competitive detection method. In this test, the cAMP present in the lysate competes with a fluorescence-labelled cAMP (cAMP-d2) for binding to an Eu cryptate-labelled anti-cAMP antibody.
In the absence of cellular cAMP, a maximal signal is produced, which is attributable to the binding of this cAMP-d2 molecule to the antibody. After excitation of the […] at 337 nm, there is a fluorescence resonance energy transfer (FRET) to the Eu cryptate molecules of the anti-cAMP antibody (labelled therewith), followed by a long-lasting emission signal at 665 nm (and at […]). Both signals are measured in a suitable measurement instrument with a time delay, i.e. after decay of the background fluorescence. Any increase in the low FRET signal caused by prostaglandin E2 administration (measured as well ratio change=emission665nm/emission620nm*10000) indicates the action of antagonists.
1.2.1. Test for Antagonism (Data Per Well of a 384-Well Plate):
To a test plate with the substance solutions already added (0.05 μl; 100% DMSO, concentration range from 0.8 nM-16.5 nM) were added 4 μl of a cAMP-d2/cell suspension (625000 cells/ml). After a 20-minute preincubation at room temperature (RT), 2 μl of a 3×PGE2 solution (1.5 nM, in PBS-IBMX) were added and incubated in the presence of the agonist for a further 60 mins at RT (volume: […]). Next the reaction was stopped by addition of 2 μl of lysis buffer and incubated for a further 20 mins at RT before the actual measurement (volume: ˜8 μl).

EP2 subtype of the human PGE2 receptor (hEP2 receptor), sequence (P43116 whole entry): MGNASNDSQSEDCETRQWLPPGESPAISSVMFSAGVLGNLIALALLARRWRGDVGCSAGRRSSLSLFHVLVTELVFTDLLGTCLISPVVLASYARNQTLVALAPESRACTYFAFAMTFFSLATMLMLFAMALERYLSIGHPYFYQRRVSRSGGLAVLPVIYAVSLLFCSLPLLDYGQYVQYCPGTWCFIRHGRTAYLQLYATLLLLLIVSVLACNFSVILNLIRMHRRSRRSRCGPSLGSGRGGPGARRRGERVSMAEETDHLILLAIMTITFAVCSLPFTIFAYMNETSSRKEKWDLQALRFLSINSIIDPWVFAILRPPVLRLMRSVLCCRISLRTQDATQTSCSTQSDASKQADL

Structure (SMILES)	IC50
COCCNC(=O)c1ccc2nn(CC3CCN(C(=O)c4ccc(OC(C)(C)C)cc4)CC3)cc2c1C [Example E2, 2-{[1-(4-tert-butoxybenzoyl)piperidin-4-yl]methyl}-N-(2-methoxyethyl)-4-methyl-2H-indazole-5-carboxamide]	> 50 nM
COCCNC(=O)c1ccc2nn(CC3CCN(C(=O)c4ccc(Oc5ccc(F)cc5)cc4)CC3)cc2c1C [Example E3, 2-({1-[4-(4-fluorophenoxy)benzoyl]piperidin-4-yl}methyl)-N-(2-methoxyethyl)-4-methyl-2H-indazole-5-carboxamide]	> 50 nM
COCCNC(=O)c1ccc2nn(CC3CCN(C(=O)c4ccc(-c5ccc(F)cc5)cc4)CC3)cc2c1C [Example E5, 2-({1-[(4′-fluorobiphenyl-4-yl)carbonyl]piperidin-4-yl}methyl)-N-(2-methoxyethyl)-4-methyl-2H-indazole-5-carboxamide]	> 50 nM
COCCNC(=O)c1ccc2nn(CC3CCN(C(=O)c4ccc(OC)cc4F)CC3)cc2c1C [Example E7, 2-{[1-(2-fluoro-4-methoxybenzoyl)piperidin-4-yl]methyl}-N-(2-methoxyethyl)-4-methyl-2H-indazole-5-carboxamide]	> 50 nM
COCCNC(=O)c1ccc2nn(CC3CCN(C(=O)c4ccc(Br)cc4F)CC3)cc2c1C [Example E8, 2-{[1-(4-bromo-2-fluorobenzoyl)piperidin-4-yl]methyl}-N-(2-methoxyethyl)-4-methyl-2H-indazole-5-carboxamide]	> 50 nM
COCCNC(=O)c1ccc2nn(CC3CCN(C(=O)c4ccc(C)cc4F)CC3)cc2c1C [Example E9, 2-{[1-(2-fluoro-4-methylbenzoyl)piperidin-4-yl]methyl}-N-(2-methoxyethyl)-4-methyl-2H-indazole-5-carboxamide]	> 50 nM
COCCNC(=O)c1ccc2nn(CC3CCN(C(=O)c4ccc(C(F)(F)F)cc4F)CC3)cc2c1C [Example E10, 2-({1-[2-fluoro-4-(trifluoromethyl)benzoyl]piperidin-4-yl}methyl)-N-(2-methoxyethyl)-4-methyl-2H-indazole-5-carboxamide]	> 50 nM
COCCNC(=O)c1ccc2nn(CC3CCN(C(=O)c4ccc(S(F)(F)(F)(F)F)cc4)CC3)cc2c1C [Example E11, N-(2-methoxyethyl)-4-methyl-2-({1-[4-(pentafluoro-λ^6-sulphanyl)benzoyl]piperidin-4-yl}methyl)-2H-indazole-5-carboxamide]	> 50 nM
COCCNC(=O)c1ccc2nn(CC3CCN(C(=O)c4ccc(C)cc4)CC3)cc2c1C [Example E12, N-(2-methoxyethyl)-4-methyl-2-{[1-(4-methylbenzoyl)piperidin-4-yl]methyl}-2H-indazole-5-carboxamide]	> 50 nM
COCCNC(=O)c1ccc2nn(CC3CCN(C(=O)c4ccc(Oc5ccc(Cl)cc5)cc4)CC3)cc2c1C [Example E13, 2-({1-[4-(4-chlorophenoxy)benzoyl]piperidin-4-yl}methyl)-N-(2-methoxyethyl)-4-methyl-2H-indazole-5-carboxamide]	> 50 nM
COCCNC(=O)c1ccc2nn(CC3CCN(C(=O)c4ccc(Oc5ccc(C)cc5)cc4)CC3)cc2c1C [Example E14, N-(2-methoxyethyl)-4-methyl-2-({1-[4-(4-methylphenoxy)benzoyl]piperidin-4-yl}-methyl)-2H-indazole-5-carboxamide]	> 50 nM
COCCNC(=O)c1ccc2nn(CC3CCN(C(=O)c4ccc(Oc5ccc(C(C)(C)C)cc5)cc4)CC3)cc2c1C [Example E15, 2-({1-[4-(4-tert-butylphenoxy)benzoyl]piperidin-4-yl}methyl)-N-(2-methoxyethyl)-4-methyl-2H-indazole-5-carboxamide]	> 50 nM
COCCNC(=O)c1ccc2nn(CC3CCN(C(=O)c4ccc(Oc5ccc(OC)cc5)cc4)CC3)cc2c1C [Example E17, N-(2-methoxyethyl)-2-({1-[4-(4-methoxyphenoxy)benzoyl]piperidin-4-yl}methyl)-4-methyl-2H-indazole-5-carboxamide]	> 50 nM
COCCNC(=O)c1ccc2nn(CC3CCN(C(=O)c4ccc(Oc5ccccc5)cc4)CC3)cc2c1C [Example E18, N-(2-methoxyethyl)-4-methyl-2-{[1-(4-phenoxybenzoyl)piperidin-4-yl]methyl}-2H-indazole-5-carboxamide]	> 50 nM
COCCNC(=O)c1ccc2nn(CC3CCN(C(=O)c4ccc(C5CC5)cc4)CC3)cc2c1C [Example E19, 2-{[1-(4-cyclopropylbenzoyl)piperidin-4-yl]methyl}-N-(2-methoxyethyl)-4-methyl-2H-indazole-5-carboxamide]	> 50 nM
COCCNC(=O)c1ccc2nn(CC3CCN(C(=O)c4ccc(OC)cc4)CC3)cc2c1C [Example E20, 2-{[1-(4-methoxybenzoyl)piperidin-4-yl]methyl}-N-(2-methoxyethyl)-4-methyl-2H-indazole-5-carboxamide]	> 50 nM
COCCNC(=O)c1ccc2nn(CC3CCN(C(=O)c4ccc(F)cc4)CC3)cc2c1C [Example E21, 2-{[1-(4-fluorobenzoyl)piperidin-4-yl]methyl}-N-(2-methoxyethyl)-4-methyl-2H-indazole-5-carboxamide]	> 50 nM
COCCNC(=O)c1ccc2nn(CC3CCN(C(=O)c4ccc(C(F)(F)F)cc4)CC3)cc2c1C [Example E22, N-(2-methoxyethyl)-4-methyl-2-({1-[4-(trifluoromethyl)benzoyl]piperidin-4-yl}-methyl)-2H-indazole-5-carboxamide]	> 50 nM
COCCNC(=O)c1ccc2nn(CC3CCN(C(=O)c4ccc(S(=O)(=O)C(F)(F)F)cc4)CC3)cc2c1C [Example E24, N-(2-methoxyethyl)-4-methyl-2-[(1-{4-[(trifluoromethyl)sulphonyl]benzoyl}piperidin-4-yl)methyl]-2H-indazole-5-carboxamide]	> 50 nM
COCCNC(=O)c1ccc2nn(CC3CCN(C(=O)c4cccc(C(F)(F)F)c4)CC3)cc2c1C [Example E25]	> 50 nM
COCCNC(=O)c1ccc2nn(CC3CCN(C(=O)c4cccc(C)c4)CC3)cc2c1C [Example E26, N-(2-methoxyethyl)-4-methyl-2-{[1-(3-methylbenzoyl)piperidin-4-yl]methyl}-2H-indazole-5-carboxamide]	> 50 nM
COCCNC(=O)c1ccc2nn(CC3CCN(C(=O)c4cccc(Cl)c4)CC3)cc2c1C [Example E27, 2-{[1-(3-chlorobenzoyl)piperidin-4-yl]methyl}-N-(2-methoxyethyl)-4-methyl-2H-indazole-5-carboxamide]	> 50 nM
COCCNC(=O)c1ccc2nn(CC3CCN(C(=O)c4ccc(OC5CCCC5)cc4)CC3)cc2c1C [Example E29, 2-({1-[4-(cyclopentyloxy)benzoyl]piperidin-4-yl}methyl)-N-(2-methoxyethyl)-4-methyl-2H-indazole-5-carboxamide]	> 50 nM
COCCNC(=O)c1ccc2nn(CC3CCN(C(=O)c4ccc(C(F)F)cc4)CC3)cc2c1C [Example E30, 2-({1-[4-(difluoromethyl)benzoyl]piperidin-4-yl}methyl)-N-(2-methoxyethyl)-4-methyl-2H-indazole-5-carboxamide]	> 50 nM
COCCNC(=O)c1ccc2nn(CC3CCN(C(=O)c4ccc(C#N)cc4)CC3)cc2c1C [Example E31, 2-{[1-(4-cyanobenzoyl)piperidin-4-yl]methyl}-N-(2-methoxyethyl)-4-methyl-2H-indazole-5-carboxamide]	> 50 nM
COCCNC(=O)c1ccc2nn(CC3CCN(C(=O)c4ccc(-n5cccn5)cc4)CC3)cc2c1C [Example E36, N-(2-methoxyethyl)-4-methyl-2-({1-[4-(1H-pyrazol-1-yl)benzoyl]piperidin-4-yl}-methyl)-2H-indazole-5-carboxamide]	> 50 nM
COCCNC(=O)c1ccc2nn(CC3CCN(C(=O)c4ccc(OC(F)F)cc4F)CC3)cc2c1C [Example E38, 2-({1-[4-(difluoromethoxy)-2-fluorobenzoyl]piperidin-4-yl}methyl)-N-(2-methoxy-ethyl)-4-methyl-2H-indazole-5-carboxamide]	> 50 nM
COCCNC(=O)c1ccc2nn(CC3CCN(C(=O)c4ccc(N5CCCC5)cc4F)CC3)cc2c1C [Example E39, 2-({1-[2-fluoro-4-(pyrrolidin-1-yl)benzoyl]piperidin-4-yl}methyl)-N-(2-methoxyethyl)-4-methyl-2H-indazole-5-carboxamide]	> 50 nM
COCCNC(=O)c1ccc2nn(CC3CCN(C(=O)c4ccc(-c5ccc(F)cc5)cc4F)CC3)cc2c1C [Example E40, 2-({1-[(3,4′-difluorobiphenyl-4-yl)carbonyl]piperidin-4-yl}methyl)-N-(2-methoxyethyl)-4-methyl-2H-indazole-5-carboxamide]	> 50 nM
COCCNC(=O)c1ccc2nn(CC3CCN(C(=O)c4ccc(-c5ccc(OC)cc5)cc4F)CC3)cc2c1C [Example E41, 2-({1-[(3-fluoro-4′-methoxybiphenyl-4-yl)carbonyl]piperidin-4-yl}methyl)-N-(2-methoxyethyl)-4-methyl-2H-indazole-5-carboxamide]	> 50 nM
